Experimental data: patent US11279735B2, “Cyclic peptide antibiotics” (priority 2017, dated 2022)
In brackets after ≈: the same amount, converted by molar mass. *1 amine or outer side, *2 acyl side, *3 side chain or, on linkers, in order; H or OH if unused. Where a SMILES comes first, the peptide text is derived from it. [ ]: non-standard residue; d: D form. The star is where a group is joined. X2 = CCCCCC[C@@H](OC[C@@H](C)N[*:1])[C@@H](C)C(=O)[*:2]; aThr = C[C@H](O)[C@H](N)C(=O)O; NMeL = CN[C@@H](CC(C)C)C(=O)O; Chg = N[C@H](C(=O)O)C1CCCCC1; NMeNva = CCC[C@H](NC)C(=O)O; Dap = NC[C@H](N)C(=O)O; Propyl(3-NH2) = NCCC*

What follows are compounds tested on Escherichia coli (E. coli) strain CFT073 ATCC 700928. Details: ATCC 700928, 22 h.
Format: cell-based
Outline: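 MICs were read after 22 h at 35 °C, with bacteria added to a final OD600 of 0.0005. Compounds were serially diluted 2-fold over ten concentrations from a top of 64, 4, 0.5 or 0.13 μg/mL (protocols 1–4). Medium was cation-adjusted Mueller Hinton II broth plus 0.002% Tween-80, following CLSI M07-A8.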

MIC [µM]	Compound
3.1 (≈ 2.39 µg/mL)	CCCCCC[C@H]1OC(=O)CNC(=O)[C@H]([C@H](C)O)NC(=O)[C@H](CN)NC(=O)[C@H](C2CCCCC2)NC(=O)[C@H](CC(C)C)N(C)C(=O)[C@@H]1Cc1ccccc1C [Example 120, (6S,9S,12S,15S,18R,19R)-9-(aminomethyl)-12-cyclohexyl-19-hexyl-15-isobutyl-16-methyl-18-(o-tolylinethyl)-6-[(1S)-1-hydroxyethyl]-1-oxa-4,7,10,13,16-pentazacyclononadecane-2,5,8,11,14,17-hexone]
6.3 (≈ 5.2 µg/mL)	CCCCCC[C@H]1OC(=O)CNC(=O)[C@H]([C@H](C)O)NC(=O)[C@H](CN)NC(=O)[C@H](C2CCCCC2)NC(=O)[C@H](CC(C)C)N(C)C(=O)[C@@H]1Cc1ccc(C(F)(F)F)cc1 [Example 121, (6S,9S,12S,15S,18R,19R)-9-(aminomethyl)-12-cyclohexyl-19-hexyl-15-isobutyl-16-methyl-6-[(1S)-1-hydroxyethyl]-18-[[4-(trifluoromethyl)phenyl]methyl]-1-oxa-4,7,10,13,16-pentazacyclononadecane-2,5,8,11,14,17-hexone]
25 (≈ 16.8 µg/mL)	CCC(F)CCC[C@H]1OC(=O)CNC(=O)[C@H]([C@H](C)O)NC(=O)[C@H](CN)NC(=O)[C@H]([C@H](C)CC)NC(=O)[C@H](CC(C)C)N(C)C(=O)[C@@H]1C (stereo partly drawn) [Example 122, (6S,9S,12S,15S,18R,19R)-9-(aminomethyl)-19-(4-fluorohexyl)-15-isobutyl-16,18-dimethyl-6-[(1S)-1-hydroxyethyl]-12-[(1R)-1-methylpropyl]-1-oxa-4,7,10,13,16-pentazacyclononadecane-2,5,8,11,14,17-hexone]
12 (≈ 9.44 µg/mL)	CCCCCC[C@H]1OC(=O)CNC(=O)[C@H]([C@H](C)O)NC(=O)[C@H](CN)NC(=O)[C@H](C2CCCCC2)NC(=O)[C@H](CC(C)C)N(C)C(=O)[C@@H]1Cc1ccc(OC)cc1 [Example 123, (6S,9S,12S,15S,18R,19R)-9-(aminomethyl)-12-cyclohexyl-19-hexyl-6-[(1S)-1-hydroxyethyl]-15-isobutyl-18-[(4-methoxyphenyl)methyl]-16-methyl-1-oxa-4,7,10,13,16-pentazacyclononadecane-2,5,8,11,14,17-hexone]
18 (≈ 12.7 µg/mL)	CCCCCC[C@H]1OC(=O)CNC(=O)[C@H](CNC(C)=O)NC(=O)[C@H](CN)NC(=O)[C@H](C2CCCCC2)NC(=O)[C@H](CC(C)C)N(C)C(=O)[C@@H]1C [Example 124, N-[[(6S,9S,12S,15S,18R,19R)-9-(aminomethyl)-12-cyclohexyl-19-hexyl-15-isobutyl-16,18-dimethyl-2,5,8,11,14,17-hexaoxo-1-oxa-4,7,10,13,16-pentazacyclononadec-6-yl]methyl]acetamide]
3.2 (≈ 2.22 µg/mL)	CCCCCC[C@H]1OC(=O)CNC(=O)[C@H]([C@H](C)O)NC(=O)[C@H]([C@H](C)N)NC(=O)[C@H](C2CCCCC2)NC(=O)[C@H](CC(C)C)N(C)C(=O)[C@@H]1C [Example 125, (6S,9S,12S,15S,18R,19R)-12-cyclohexyl-19-hexyl-15-isobutyl-16,18-dimethyl-9-[(1S)-1-aminoethyl]-6-[(1S)-1-hydroxyetltyl]-1-oxa-4,7,10,13,16-pentazacyclononadecane-2,5,8,11,14,17-hexone]
3.1 (≈ 2.15 µg/mL)	CCCCCC(C)[C@H]1OC(=O)CNC(=O)[C@H]([C@H](C)O)NC(=O)[C@H](CN)NC(=O)[C@H](C2CCCCC2)NC(=O)[C@H](CC(C)C)N(C)C(=O)[C@@H]1C (stereo partly drawn) [Example 126, (6S,9S,12S,15S,18R,19R)-9-(aminomethyl)-12-cyclohexyl-15-isobutyl-16,18-dimethyl-19-(1-methylhexyl)-6-[(1S)-1-hydroxyethyl]-1-oxa-4,7,10,13,16-pentazacyclononadecane-2,5,8,11,14,17-hexone]
4.4 (≈ 2.93 µg/mL)	CCCCCC[C@H]1OC[C@@H](C)NC(=O)[C@H]([C@H](C)O)NC(=O)[C@H](CN)NC(=O)[C@H](C2CCCCC2)NC(=O)[C@H](CCC)N(C)C(=O)[C@@H]1C [Example 127, (3R,6S,9S,12S,15S,18R,19R)-9-(aminomethyl)-12-cyclohexyl-19-hexyl-3,16,18-trimethyl-15-propyl-6-[(1S)-1-hydroxyethyl]-1-oxa-4,7,10,13,16-pentazacyclononadecane-5,8,11,14,17-pentone] (cyclo([Chg][Dap][aThr][X2][NMeNva]))
3.1 (≈ 2.11 µg/mL)	CCCCCC[C@H]1OC[C@@H](C)NC(=O)[C@H](COC)NC(=O)[C@H](CN)NC(=O)[C@H](C2CCCCC2)NC(=O)[C@H](CC(C)C)N(C)C(=O)[C@@H]1C [Example 128, (3R,6S,9S,12S,15S,18R,19R)-9-(aminomethyl)-12-cyclohexyl-19-hexyl-15-isobutyl-6-(methoxymethyl)-3,16,18-trimethyl-1-oxa-4,7,10,13,16-pentazacyclononadecane-5,8,11,14,17-pentone] (cyclo([Chg][Dap]S(Me)[X2][NMeL]))
0.66 (≈ 0.474 µg/mL)	CCC[C@H]1C(=O)N[C@@H](C2CCCCCC2)C(=O)N[C@@H](CN)C(=O)N[C@@H]([C@H](C)O)C(=O)NCC(=O)O[C@H](CCC2CC3CCC2C3)[C@@H](C)C(=O)N1C (stereo partly drawn) [Example 129, (6S,9S,12S,15S,18R,19R)-9-(aminomethyl)-12-cycloheptyl-16,18-dimethyl-19-(2-norbornan-2-ylethyl)-15-propyl-6-[(1S)-1-hydroxyethyl]-1-oxa-4,7,10,13,16-pentazacyclononadecane-2,5,8,11,14,17-hexone]
44 (≈ 31.3 µg/mL)	CCCCCC[C@H]1OC[C@@H](C)NC(=O)[C@H](COCCCN)NC(=O)[C@H](CO)NC(=O)[C@H](C2CCCCC2)NC(=O)[C@H](CCC)N(C)C(=O)[C@@H]1C [Example 130, (3R,6S,9S,12S,15S,18R,19R)-6-(3-aminopropoxymethyl)-12-cyclohexyl-19-hexyl-9-(hydroxymethyl)-3,16,18-trimethyl-15-propyl-1-oxa-4,7,10,13,16-pentazacyclononadecane-5,8,11,14,17-pentone] (cyclo([Chg]SS(Propyl(3-NH2))[X2][NMeNva]))
11 (≈ 7.96 µg/mL)	CCCCCC[C@H]1OC[C@@H](C)NC(=O)[C@H](COCCCN)NC(=O)[C@H](CN)NC(=O)[C@H](C2CCCCC2)NC(=O)[C@H](CC(C)C)N(C)C(=O)[C@@H]1C [Example 131, (3R,6S,9S,12S,15S,18R,19R)-9-(aminomethyl)-6-(3-aminopropoxymethyl)-12-cyclohexyl-19-hexyl-15-isobutyl-3,16,18-trimethyl-1-oxa-4,7,10,13,16-pentazacyclononadecane-5,8,11,14,17-pentone] (cyclo([Chg][Dap]S(Propyl(3-NH2))[X2][NMeL]))
6.1 (≈ 4.07 µg/mL)	CCCCCC[C@H]1OC(=O)CNC(=O)[C@H]([C@H](C)O)NC(=O)[C@H](CO)NC(=O)[C@H](C2CCCCC2)NC(=O)[C@H](CCC)N(C)C(=O)[C@@H]1C [Example 132, (6S,9S,12S,15S,18R,19R)-12-cyclohexyl-19-hexyl-9-(hydroxymethyl)-16,18-dimethyl-15-propyl-6-[(1S)-1-hydroxyethyl]-1-oxa-4,7,10,13,16-pentazacyclononadecane-2,5,8,11,14,17-hexone]
3.1 (≈ 2.24 µg/mL)	CCCCCC[C@H]1OC(=O)CNC(=O)[C@H](COCCCN)NC(=O)[C@H](CN)NC(=O)[C@H](C2CCCCCC2)NC(=O)[C@H](CCC)N(C)C(=O)[C@@H]1C [Example 133, (6S,9S,12S,15S,18R,19R)-9-(aminomethyl)-6-(3-aminopropoxymethyl)-12-cycloheptyl-19-hexyl-16,18-dimethyl-15-propyl-1-oxa-4,7,10,13,16-pentazacyclononadecane-2,5,8,11,14,17-hexone]
